# Reference: publication PMC8915830 (Proceedings of the National Academy of Sciences of the …, 2022)
# Key:
# [1] = molecular target: T1, hGHSR1aWT (Homo sapiens, UniProt Q92847); experiment: iCa2+ in WT or Gαq/11 KO HEK293/S cells; type: cell-based; details: 10 μM ligand; versus WT cells
# [2] = molecular target: T1, hGHSR1aWT; experiment: Gαq/11-dependent intracellular Ca2+ mobilization; type: cell-based; details: for activity of the pure/resynthesized molecule: screening aliquots contained oxidated impurities
# T1 sequence (Q92847 whole entry): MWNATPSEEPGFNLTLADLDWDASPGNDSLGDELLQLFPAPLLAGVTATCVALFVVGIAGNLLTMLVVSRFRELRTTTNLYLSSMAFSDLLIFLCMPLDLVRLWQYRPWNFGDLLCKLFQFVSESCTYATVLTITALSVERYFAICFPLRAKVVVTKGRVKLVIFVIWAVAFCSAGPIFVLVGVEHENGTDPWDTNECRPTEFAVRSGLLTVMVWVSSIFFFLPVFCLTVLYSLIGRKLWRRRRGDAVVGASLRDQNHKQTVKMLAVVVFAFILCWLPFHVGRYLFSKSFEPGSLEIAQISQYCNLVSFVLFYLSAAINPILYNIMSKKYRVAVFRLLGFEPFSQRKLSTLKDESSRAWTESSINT
activity of the pure/resynthesized molecule [2],SMILES,other results
–,C[C@@H](O)CNC(C)(C)CC(=O)N[C@@H]1CCc2ccccc2N(Cc2ccc(-c3ccccc3-c3nn[nH]n3)cc2)C1=O [L585],ligand-induced iCa2+ in Gαq/11 KO cells [1]: abolished
could not be confirmed,CCOc1ccc(C2c3c(oc4ccc(C)cc4c3=O)C(=O)N2CCCN(C)C)cc1OC (stereo not shown) [N1956],–
could not be confirmed,COc1ccc(C2c3c(oc4ccc(Cl)cc4c3=O)C(=O)N2CCCN(C)C)cc1OC (stereo not shown) [N6164],–
–,Cc1nc2ccc(Oc3ccc(F)cc3)cc2c(=O)n1C[C@H]1CCCN(C(C)C)C1 [YIL781],"inhibition of iCa2+ evoked by EC80 N8279, ghrelin or L585 ([2]; 30 min antagonist pretreatment): competitively inhibited"
